# Source: patent US20250074939A1, “SEA URCHIN-DERIVED PEPTIDE AND USE THEREOF” (NATIONAL MARINE BIODIVERSITY INSTITUTE OF KOREA, priority 2021, published 2025)
# pEC50, pIC50: −log10 of the molar value. Where a SMILES comes first, the peptide text is derived from it. Bridges are numbered along the chain shown (N, C = ends).
# Key:
# [1] = target: T1, recombinant human vasopressin V1B receptor (Homo sapiens, UniProt P47901); test: cell-based
# [2] = target: T1, recombinant human vasopressin V1B receptor
# [3] = target: T2, recombinant human vasopressin V2 receptor (Homo sapiens, UniProt P30518); test: cell-based
# [4] = target: T3, recombinant human vasopressin V1A receptor (Homo sapiens, UniProt P37288); test: cell-based
# T3 sequence (P37288 whole entry): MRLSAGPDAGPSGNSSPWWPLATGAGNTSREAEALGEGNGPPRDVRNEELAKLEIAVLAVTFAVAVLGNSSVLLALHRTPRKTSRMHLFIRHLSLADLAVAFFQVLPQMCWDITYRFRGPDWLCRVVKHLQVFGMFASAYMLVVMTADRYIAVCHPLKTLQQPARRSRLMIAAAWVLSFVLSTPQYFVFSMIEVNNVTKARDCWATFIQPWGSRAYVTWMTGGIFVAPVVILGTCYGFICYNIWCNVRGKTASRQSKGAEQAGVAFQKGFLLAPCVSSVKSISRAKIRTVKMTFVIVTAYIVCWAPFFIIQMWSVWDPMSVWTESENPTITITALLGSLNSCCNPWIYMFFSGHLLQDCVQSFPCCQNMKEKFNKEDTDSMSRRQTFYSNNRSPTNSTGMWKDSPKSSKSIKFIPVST
# [5] = test system: tube foot and esophageal tissues isolated from Echinus esculentus; details: cited from earlier work
# [6] = target: T4, recombinant human oxytocin receptor (Homo sapiens, UniProt P30559); test: cell-based
# T4 sequence (P30559 whole entry): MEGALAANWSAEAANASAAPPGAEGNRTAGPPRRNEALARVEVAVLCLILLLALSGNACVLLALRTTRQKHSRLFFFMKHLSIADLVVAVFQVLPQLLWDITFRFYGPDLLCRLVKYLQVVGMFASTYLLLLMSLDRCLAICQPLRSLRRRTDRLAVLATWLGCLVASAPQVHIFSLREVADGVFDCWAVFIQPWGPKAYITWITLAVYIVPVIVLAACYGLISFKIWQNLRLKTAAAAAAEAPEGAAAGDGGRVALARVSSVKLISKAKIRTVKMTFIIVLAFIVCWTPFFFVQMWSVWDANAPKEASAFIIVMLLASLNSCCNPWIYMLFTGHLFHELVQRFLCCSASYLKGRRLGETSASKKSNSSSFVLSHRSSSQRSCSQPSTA
# [7] = target: T3, recombinant human vasopressin V1A receptor; test: cell-based or functional assay
# [8] = target: T4, recombinant human oxytocin receptor; test: cell-based or functional assay
# [9] = target: T2, recombinant human vasopressin V2 receptor; test: cell-based or functional assay
# [10] = target: T5, recombinant human vasopressin V1B receptor (human) (UniProt P47901); test: cell-based or functional assay
# T5 sequence (looked up): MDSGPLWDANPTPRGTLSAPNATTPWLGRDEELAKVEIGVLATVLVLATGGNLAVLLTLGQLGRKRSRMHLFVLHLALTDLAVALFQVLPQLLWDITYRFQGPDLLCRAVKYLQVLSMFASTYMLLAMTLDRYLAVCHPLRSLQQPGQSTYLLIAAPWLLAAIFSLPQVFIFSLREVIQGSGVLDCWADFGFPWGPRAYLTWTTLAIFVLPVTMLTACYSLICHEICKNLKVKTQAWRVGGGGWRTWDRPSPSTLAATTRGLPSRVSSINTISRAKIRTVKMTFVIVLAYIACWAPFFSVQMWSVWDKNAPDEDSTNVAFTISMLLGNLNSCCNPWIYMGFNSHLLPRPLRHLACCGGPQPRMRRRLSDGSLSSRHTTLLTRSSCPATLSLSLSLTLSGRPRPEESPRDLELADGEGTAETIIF
receptor inhibition: intracellular calcium response to 10 nM vasopressin (calcium dye fluorescence imaging) [7] [µM],receptor inhibition: intracellular calcium response to 30 nM oxytocin (calcium dye fluorescence imaging) [8] [UM],"receptor activation: intracellular cAMP accumulation (HTRF), relative to 1 nM vasopressin [9] [nM]","receptor activation: increase of intracellular calcium concentration (calcium dye fluorescence imaging), relative to 0.1 µM vasopressin [10] [nM]",Compound,pEC50 [1],receptor selectivity at appropriate concentration [2],pEC50 [3],pIC50 [4],contraction of isolated tube foot and esophageal tissues [5],pIC50 [6]
–,–,–,–,CC[C@H](C)[C@@H]1NC(=O)[C@H](Cc2ccccc2)NC(=O)[C@@H](N)CSSC[C@@H](C(=O)N2CCC[C@H]2C(=O)N[C@@H](CCCCN)C(=O)NCC(N)=O)NC(=O)[C@H](CC(N)=O)NC(=O)[C@H](CO)NC1=O [Echinotocin] (H-CFISNCPKG-NH2; disulfide 1-6; N-terminus assumed),7.31,selectively activates only the V1B receptor and has little effect on other receptors,8.43,6.00,effective in contracting tube foot and esophageal tissues,5.77
1,1.7,3.68,49.1,"Echinotocin (Strongylocentrotus purpuratus-derived peptide, SEQ ID NO: 1)",–,–,–,–,–,–
